Assay results as given in patent publication US20100069854A1, “Elastomeric Devices Containing Chlorhexidine/Fatty Acid Salts Made From Fatty Acids of 12 to 18 Carbons” (priority 2008, published 2010).

Key:
[1] = Rate of release of chlorhexidine/fatty acid salts from coated polyurethane tubes into DI water; type: physicochemical; settings: for Cumulative release of the chlorhexidine/fatty acid salts from the coated polyurethane tubes: 1 cm coated tube in DI water, 37° C.
Procedure: A solution of each respective chlorhexidine/fatty acid salt was prepared and used to infuse a sample of elastomeric material. To perform the test, individual samples, 8 cm pieces of polyurethane tube containing a colorant, were surface dip coated in respective solutions of the chlorhexidine/fatty acid salts. The solutions were prepared as follows: 8.6 g of Tecoflex (Noveon, Cleveland, Ohio) was dissolved in 174 g of Tetrahydrofuran and methanol. 5.88 g of chlorhexidine acetate, chlorhexidine laurate, chlorhexidine myristate, chlorhexidine palmitate and chlorhexidine stearate were individually dissolved into the polymer-solvent mixture. The samples were immersed into the solvent-polymer-salt mixture and then dried at room temperature, evaporating the solvent. A polymeric coating was produced on the surface of the tubes. The amounts of chlorhexidine/fatty acid salt adhered per cm of the tube was measured (Table 2) by exhaustively extracting the salt and measuring UV absorbance at 253 nm relative to controls: For each of the samples, the rate of release of chlorhexidine/fatty acid salts into an aqueous solution was determined. To perform the rate of release test, 1 cm from each of the coated polyurethane tubes, were submerged in DeIonized (DI) water and incubated at 37° C. for a period of 28 days to determine the rate of release of the salts from the respective 1 cm samples of coated polyurethane tubing. The water was collected and replaced with fresh water after approximately 2 hours. The water was again collected and replaced with fresh water after the first day and every seven days thereafter. The amount of chlorhexidine/fatty acid salt in the collected water was measured with an Agilent 8453 UV-Vis Diode Array Detector with a manual setup using a cuvette w/path length of 1 cm. Chlorhexidine absorbance was read at 253 nm and concentration was calculated via a calibration curve developed using standards of 1, 5, 10, 20, 30, 35, and 40 μg/mL chlorhexidine acetate in DI Water. The percentage of chlorhexidine/fatty acid salt released from the sample into an aqueous media (percent release) was calculated according to the following equation: Percent release=(cumulative release at that time period/initial content)*100.

[2] = 90% THF+10% Methanol
Text: Chlorhexidine diacetate, Chlorhexidine dodecanoate and chlorhexidine palmitate were loaded into silicone tubing by first dissolving the chlorhexidine salt in a 90% THF+10% Methanol solution. The tubing was then immersed in this solution for one day where it swelled and chlorhexidine salt diffused into the polymer matrix. The impregnated piece of tubing was removed and then vacuum dried to remove all volatile solvent.

[3] = Incorporation of chlorhexidine salts into silicone tubing (swelling impregnation, extraction, HPLC); type: physicochemical; settings: one day, equivalent mass of chlorhexidine base extracted;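 further: columns differ by chlorhexidine salt concentration in the impregnation solution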
Procedure: Chlorhexidine diacetate, Chlorhexidine dodecanoate and chlorhexidine palmitate were loaded into silicone tubing by first dissolving the chlorhexidine salt in a 90% THF+10% Methanol solution.
Impregnated chlorhexidine was extracted from the tubing by immersing in an excess of THF to fully swell it and then adding an equal volume of water to extract the chlorhexidine salt. The quantity of chlorhexidine was determined by previously enumerated HPLC method. It is reported below for different concentration impregnation solutions in terms of the equivalent mass of chlorhexidine base extracted: […]

[4] = system: Candida albicans ATCC 10231; test: Zone of inhibition assay with impregnated polyurethane foam discs; type: cell-based
Procedure: To evaluate antimicrobial properties of polyurethane foam samples infused with the various chlorhexidine/fatty acid salts, a zone of inhibition assay was performed. In this assay, 1.4% (w/v) of chlorhexidine acetate, chlorhexidine caprate, chlorhexidine laurate, chlorhexidine myristate, chlorhexidine palmitate and chlorhexidine stearate solutions in methanol were prepared. A supply of 8 mm discs were punched out of a sheet of polyurethane foam (Rynel medical grade polyurethane foam) with biopsy punches (Miltex Kai). Several discs were placed in each of six 50 ml centrifuge tubes. Approximately 5 ml of each of the different methanol/chlorhexidine/fatty acid salt solutions was added to each respective tube. The discs were centrifuged for 5 minutes to remove any air bubbles and soaked for 1 hr to infuse the foam discs with the respective chlorhexidine/fatty acid salt. Infused discs were transferred to clean centrifuge tubes and vacuum dried at 25° C. for 24 hrs to remove any residual solvents. Initial concentrations of salts, impregnated into the punches, were determined by dissolving the impregnated foams and by high pressure liquid chromatography (HPLC) analysis using an Agilent Eclipse XDB-CN 3u 4.6×150 mm column with initial mobile phase=65% DI water/0.2% trifluoroacetic acid (TFA): 35% Acetonitrile/0.2% TFA. Chlorhexidine absorbance was read at 253 nm and concentration was calculated via a chlorhexidine calibration curve. […] To perform the zone of inhibition assay on the impregnated polyurethane foam discs, agar plates were prepared by mixing 11 g Mueller-Hinton cation-adjusted broth and 1.5 g agarose in 500 ml DI water. The agar was autoclaved for 15 minutes at 121° C., 15 psi. 10 ml of the still hot, liquid agar was pipetted onto petri dishes. The challenge organism, Candida albicans ATCC 10231, was cultivated in Trypticase soy broth, standard microbiological growth medium (TSB). Sterile cotton swabs were dipped into the undiluted culture and the plated agar was fully inoculated with swabs. The 8 mm polyurethane foam discs were transferred daily to a freshly inoculated agar for 9 days. The zone of inhibition (ZOI) was measured using calipers. Actual ZOI was measured by subtracting the diameter of the foam (when wet) from the zone measured and dividing by 2. The results are presented in Table 6, with a graphical representation of the ZOI in FIG. 2;

Compound: N=C(NCCCCCCNC(=N)NC(=N)Nc1ccc(Cl)cc1)NC(=N)Nc1ccc(Cl)cc1.Nc1ccc(P(=O)(O)O)cc1.Nc1ccc(P(=O)(O)O)cc1 [Chlorhexidine Palmitate, chlorhexidine dipalmitate]
- Cumulative release of the chlorhexidine/fatty acid salts from the coated polyurethane tubes ([1]; Day 1): 28 g
- Cumulative release of the chlorhexidine/fatty acid salts from the coated polyurethane tubes ([1]; Day 7): 79 g
- Cumulative release of the chlorhexidine/fatty acid salts from the coated polyurethane tubes ([1]; Day 14): 112 g
- Cumulative release of the chlorhexidine/fatty acid salts from the coated polyurethane tubes ([1]; Day 21): 132 g
- Cumulative release of the chlorhexidine/fatty acid salts from the coated polyurethane tubes ([1]; Day 28): 140 g
- Release from the coated sample over the test (in words) ([1]; FIG. 1, 28 days in DI water): continually released at an appreciable rate throughout the duration of the test
- Amount released from the coated sample over the 7 day period ([1]; from 21 to 28 days): 8 µg
- Solubility in the swelling impregnation solvent mixture (in words) [2]: soluble at higher concentrations
- Salt content in silicone elastomeric medical article ([3]; 1% impregnation solution in 90% THF+10% Methanol): 133 µg/cm
- Salt content in silicone elastomeric medical article ([3]; 3% impregnation solution in 90% THF+10% Methanol): 205 µg/cm
- Salt content in silicone elastomeric medical article ([3]; 6% impregnation solution in 90% THF+10% Methanol): 356 µg/cm
- Salt content in silicone elastomeric medical article ([3]; 10% impregnation solution in 90% THF+10% Methanol): 366 µg/cm
- Salt content in silicone elastomeric medical article ([3]; 20% impregnation solution in 90% THF+10% Methanol): 407 µg/cm
- ZOI produced by impregnated polyurethane foam punches against Candida albicans ([4]; Day 1, daily transfer to fresh agar): 14 mm
- ZOI produced by impregnated polyurethane foam punches against Candida albicans ([4]; Day 2, daily transfer to fresh agar): 21 mm
- ZOI produced by impregnated polyurethane foam punches against Candida albicans ([4]; Day 3, daily transfer to fresh agar): 19 mm
- ZOI produced by impregnated polyurethane foam punches against Candida albicans ([4]; Day 4, daily transfer to fresh agar): 14 mm
- ZOI produced by impregnated polyurethane foam punches against Candida albicans ([4]; Day 7, daily transfer to fresh agar): 11 mm
- ZOI produced by impregnated polyurethane foam punches against Candida albicans ([4]; Day 8, daily transfer to fresh agar): 14 mm
- ZOI produced by impregnated polyurethane foam punches against Candida albicans ([4]; Day 9, daily transfer to fresh agar): 15 mm
